Measured values from US20060100431A1, “Biologically active compounds” (Amura Therapeutics Limited, priority 2002, published 2006).

Legend:
Wild-type cruzipain = Wild-type cruzipain (Trypanosoma cruzi, UniProt P25779); experiment: Trypanosoma cruzi cruzipain peptidase activity assay (Ki); format: biochemical; conditions: read-out: Ki, inhibitors of cruzain and cruzipains
Procedure, shortened: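 Native cruzipain from T. cruzi Dm28 epimastigotes, 2.5 nM, in 100 mM sodium phosphate pH 6.75 with 1 mM EDTA and 10 mM L-cysteine, 25 °C, DMSO <1%. Rates taken from continuous fluorogenic substrate read; Ki by regression assuming reversible pure-competitive inhibition.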

CPB2.8ΔCTE = molecular target: T1, CPB2.8ΔCTE (Leishmania mexicana, UniProt P36400); experiment: Leishmania mexicana cysteine protease B (CPB) peptidase activity assay (Ki); format: biochemical; conditions: Ki, inhibitors of Leismania mexicana CPB protease
T1 construct: Wild-type recombinant CPB without the C-terminal extention (i.e. CPB2.8ΔCTE); Dr. Jeremy Mottram (Wellcome Centre for Molecular Parasitology, University of Glasgow)
Procedure, shortened: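 Apparent Ki was derived by regression of activity against inhibitor concentration, assuming pure-competitive reversible binding. Reaction: 0.25 nM CPB lacking the C-terminal extension, pH 5.5 acetate buffer (1 mM EDTA, 200 mM NaCl, 10 mM DTT), 25 °C, followed by continuous substrate fluorescence.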

Sequence of Wild-type cruzipain (P25779 whole entry): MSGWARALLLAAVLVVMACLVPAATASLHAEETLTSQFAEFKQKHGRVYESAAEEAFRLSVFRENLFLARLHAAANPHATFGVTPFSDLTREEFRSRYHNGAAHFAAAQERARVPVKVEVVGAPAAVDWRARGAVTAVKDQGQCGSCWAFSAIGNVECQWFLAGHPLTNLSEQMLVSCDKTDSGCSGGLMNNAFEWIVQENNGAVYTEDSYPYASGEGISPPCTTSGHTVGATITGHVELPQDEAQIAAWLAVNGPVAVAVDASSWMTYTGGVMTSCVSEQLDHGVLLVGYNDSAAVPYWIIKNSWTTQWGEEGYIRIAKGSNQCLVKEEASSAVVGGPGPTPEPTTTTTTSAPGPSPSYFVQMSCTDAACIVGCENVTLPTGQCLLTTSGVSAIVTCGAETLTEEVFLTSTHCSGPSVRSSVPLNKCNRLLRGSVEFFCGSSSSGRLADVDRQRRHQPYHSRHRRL
T1 sequence (P36400 126-343, stated change not applied): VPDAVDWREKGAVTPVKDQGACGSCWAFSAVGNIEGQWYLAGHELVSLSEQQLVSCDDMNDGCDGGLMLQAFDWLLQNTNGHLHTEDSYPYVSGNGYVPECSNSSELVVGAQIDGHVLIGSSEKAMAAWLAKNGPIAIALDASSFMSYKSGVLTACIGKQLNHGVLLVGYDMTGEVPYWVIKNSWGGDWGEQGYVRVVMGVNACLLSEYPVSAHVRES

| Structure (SMILES) | Ki (Wild-type cruzipain) | Ki (CPB2.8ΔCTE) |
| --- | --- | --- |
| CC(C)C[C@H](NC(=O)c1ccc(N(C)C)cc1)C(=O)N1CC[C@@H]2[C@H]1C(=O)CN2C(=O)c1cc2ccccc2s1 [Example 100, (3aR,6aS)-N-{(1S)-1-[4-(Benzo[b]thiophene-2-carbonyl)-6-oxo-hexahydro-pyrrolo[3,2-b]pyrrole-1-carbonyl)-3-methyl-butyl}-4-dimethylamino-benzamide] | < 5 µM | < 5 µM |
| CC(C)C[C@H](NC(=O)c1ccc(N(C)C)cc1)C(=O)N1CC[C@@H]2[C@H]1C(=O)CN2C(=O)c1cc2ccccc2o1 [Example 101, (3aR,6aS)-N-{(1S)-1-[4-(Benzofuran-2-carbonyl)-6-oxo-hexahydro-pyrrolo[3,2-b]pyrrole-1-carbonyl]-3-methyl-butyl}-4-dimethylamino-benzamide] | < 5 µM | < 5 µM |
| CC(C)CCC(=O)N1CC(=O)[C@@H]2[C@H]1CCN2C(=O)[C@H](CC(C)C)NC(=O)c1ccc(N(C)C)cc1 [Example 105, (3aR,6aS)-4-Dimethylamino-N-{(1S)-3-methyl-1-[4-(4-methyl-pentanoyl)-6-oxo-hexahydro-pyrrolo[3,2-b]pyrrole-1-carbonyl]-butyl}-benzamide] | < 5 µM | < 5 µM |
| Cc1ccc(C(=O)N2CC(=O)[C@@H]3[C@H]2CCN3C(=O)[C@H](CC(C)C)NC(=O)c2ccc(N(C)C)cc2)cc1C [Example 114, (3aR,6aS)-4-Dimethylamino-N-{(1S)-1-[4-(3,4-dimethyl-benzoyl)-6-oxo-hexahydro-pyrrolo[3,2-b]pyrrole-1-carbonyl]-3-methyl-butyl}-benzamide] | < 5 µM | < 5 µM |
| Cc1cc(C(=O)N2CC(=O)[C@@H]3[C@H]2CCN3C(=O)[C@H](CC(C)C)NC(=O)c2ccc(N(C)C)cc2)ccc1F [Example 115, (3aR,6aS)-4-Dimethylamino-N-{(1S)-1-[4-(4-fluoro-3-methyl-benzoyl)-6-oxo-hexahydro-pyrrolo[3,2-b]pyrrole-1-carbonyl]-3-methyl-butyl}-benzamide] | < 5 µM | < 5 µM |
| CC(C)C[C@H](NC(=O)c1ccc(N(C)C)cc1)C(=O)N1CC[C@@H]2[C@H]1C(=O)CN2C(=O)c1ccc(F)c(F)c1 [Example 116, (3aR,6aS)-N-{(1S)-1-[4-(3,4-Difluoro-benzoyl)-6-oxo-hexahydro-pyrrolo[3,2-b]pyrrole-1-carbonyl]-3-methyl-butyl}-4-dimethylamino-benzamide] | < 5 µM | < 5 µM |
| CCCCC(=O)N1CC(=O)[C@@H]2[C@H]1CCN2C(=O)[C@H](CC(C)C)NC(=O)c1ccc(N(C)C)cc1 [Example 128, (3aR,6aS)-4-Dimethylamino-N-[(1S)-3-methyl-1-(6-oxo-4-pentanoyl-hexahydro-pyrrolo[3,2-b]pyrrole-1-carbonyl)-butyl]-benzamide] | < 5 µM | < 5 µM |
| CC(C)CC(=O)N1CC(=O)[C@@H]2[C@H]1CCN2C(=O)[C@H](CC(C)C)NC(=O)c1ccc(N(C)C)cc1 [Example 130, (3aR,6aS)-4-Dimethylamino-N-{(1S)-3-methyl-1-[4-(3-methyl-butyryl)-6-oxo-hexahydro-pyrrolo[3,2-b]pyrrole-1-carbonyl]-butyl}-benzamide] | < 5 µM | < 5 µM |
| CC(C)C[C@H](NC(=O)c1ccc(N(C)C)cc1)C(=O)N1CC[C@@H]2[C@H]1C(=O)CN2C(=O)CC1CC1 [Example 132, (3aR,6aS)-N-{(1S)-1-[4-(2-Cyclopropyl-acetyl)-6-oxo-hexahydro-pyrrolo[3,2-b]pyrrole-1-carbonyl]-3-methyl-butyl}-4-dimethylamino-benzamide] | < 5 µM | < 5 µM |
| CC(C)C[C@H](NC(=O)c1ccc(N(C)C)cc1)C(=O)N1CC[C@@H]2[C@H]1C(=O)CN2C(=O)C1CCCC1 [Example 134, (3aR,6aS)-N-[(1S)-1-(4-Cyclopentanecarbonyl-6-oxo-hexahydro-pyrrolo[3,2-b]pyrrole-1-carbonyl)-3-methyl-butyl]-4-dimethylamino-benzamide] | < 5 µM | < 5 µM |
| CCCCCCC(=O)N1CC(=O)[C@@H]2[C@H]1CCN2C(=O)[C@H](CC(C)C)NC(=O)c1ccc(N(C)C)cc1 [Example 136, (3aR,6aS)-4-Dimethylamino-N-[(1S)-1-(4-heptanoyl-6-oxo-hexahydro-pyrrolo[3,2-b]pyrrole-1-carbonyl)-3-methyl-butyl]-benzamide] | < 5 µM | < 5 µM |
| CC(C)C[C@H](NC(=O)c1ccc(N(C)C)cc1)C(=O)N1CC[C@@H]2[C@H]1C(=O)CN2C(=O)CC1CCCCC1 [Example 137, (3aR,6aS)-N-{(1S)-1-[4-(2-Cyclohexyl-acetyl)-6-oxo-hexahydro-pyrrolo[3,2-b]pyrrole-1-carbonyl]-3-methyl-butyl}-4-dimethylamino-benzamide] | < 5 µM | < 5 µM |
| CC(C)C[C@H](NC(=O)c1ccc(N(C)C)cc1)C(=O)N1CC[C@@H]2[C@H]1C(=O)CN2C(=O)C1CC=CCC1 (stereo partly drawn) [Example 138, (3aR,6aS)-N-{(1S)-1-[4-(Cyclohex-3-enecarbonyl)-6-oxo-hexahydro-pyrrolo[3,2-b]pyrrole-1-carbonyl]-3-methyl-butyl}-4-dimethylamino-benzamide] | < 5 µM | < 5 µM |
| COC1CCCC(C(=O)N2CC(=O)[C@@H]3[C@H]2CCN3C(=O)[C@H](CC(C)C)NC(=O)c2ccc(N(C)C)cc2)C1 (stereo partly drawn) [Example 139, (3aR,6aS)-4-Dimethylamino-N-{(1S)-1-[4-(3-methoxy-cyclohexanecarbonyl)-6-oxo-hexahydro-pyrrolo[3,2-b]pyrrole-1-carbonyl]-3-methyl-butyl}-benzamide] | < 5 µM | < 5 µM |
| CC(C)C[C@H](NC(=O)c1ccc(N(C)C)cc1)C(=O)N1CC[C@@H]2[C@H]1C(=O)CN2C(=O)N1CCOCC1 [Example 142, (3aR,6aS)-4-Dimethylamino-N-{(1S)-3-methyl-1-[4-(morpholin-4-carbonyl)-6-oxo-hexahydro-pyrrolo[3,2-b]pyrrole-1-carbonyl]-butyl}-benzamide] | < 5 µM | < 5 µM |
| CC(C)C[C@H](NC(=O)c1ccc(N(C)C)cc1)C(=O)N1CC[C@@H]2[C@H]1C(=O)CN2C(=O)[C@H](CO)NC(=O)OCc1ccccc1 [Example 147, (3aS,6aR)-((1S)-2-{4-[(2S)-2-(4-Dimethylamino-benzoylamino)-4-methyl-pentanoyl]-3-oxo-hexahydro-pyrrolo[3,2-b]pyrrole-1-yl}-1-hydroxymethyl-2-oxo-ethyl)-carbamic acid benzyl ester] | < 5 µM | < 5 µM |
| CC(C)C[C@H](NC(=O)c1ccc(N(C)C)cc1)C(=O)N1CC[C@@H]2[C@H]1C(=O)CN2C(=O)[C@@H](N)CC(C)C [Example 150, (3aR,6aS)-N-{(1S)-1-[4-((2S)-2-Amino-4-methyl-pentanoyl)-6-oxo-hexahydro-pyrrolo[3,2-b]pyrrole-1-carbonyl]-3-methyl-butyl}-4-dimethylamino-benzamide] | < 5 µM | < 5 µM |
| CC(C)C[C@H](NC(=O)c1ccc(N(C)C)cc1)C(=O)N1CC[C@@H]2[C@H]1C(=O)CN2C(=O)[C@H](Cc1ccccc1)NC(=O)OCc1ccccc1 [Example 160, (3aS,6aR)-((1S)-1-Benzyl-2-{-[(2S)-2-(4-dimethylamino-benzoylamino)-4-methyl-pentanoyl]-3-oxo-hexahydro-pyrrolo[3,2-b]pyrrole-1-yl}-2-oxo-ethyl)-carbamic acid benzyl ester] | < 5 µM | < 5 µM |
| CC(=O)Nc1ccsc1C(=O)N1CC(=O)[C@@H]2[C@H]1CCN2C(=O)[C@H](CC(C)C)NC(=O)c1ccc(N(C)C)cc1 [Example 165, (3aR,6aS)-N-{(1S)-[4-(3-Acetylamino-thiophene-2-carbonyl)-6-oxo-hexahydro-pyrrolo[3,2-b]pyrrole-1-carbonyl]-3-methyl-butyl}-4-dimethylamino-benzamide] | < 5 µM | < 5 µM |
| CC(C)C[C@H](NC(=O)c1ccc(N(C)C)cc1)C(=O)N1CC[C@@H]2[C@H]1C(=O)CN2C(=O)Nc1ccccc1 [Example 167, (3aS,6aR)-4-[(2S)-2-(4-Dimethylamino-benzoylamino)-4-methyl-pentanoyl]-3-oxo-hexahydro-pyrrolo[3,2-b]pyrrole-1-carboxylic acid phenylamide] | < 5 µM | < 5 µM |
| CC(C)C[C@H](NC(=O)c1ccc(C(C)(C)C)cc1)C(=O)N1CC[C@@H]2[C@H]1C(=O)CN2C(=O)Nc1ccccc1 [Example 190, (3aS,6aR)-4-(2S-2-(4-tert-Butyl-benzoylamino)-4-methyl-pentanoyl]-3-oxo-hexahydro-pyrrolo[3,2-b]pyrrole-1-carboxylic acid phenylamide] | < 5 µM | < 5 µM |
| CC(C)CCC(=O)N1CC(=O)[C@@H]2[C@H]1CCN2C(=O)[C@H](CC(C)C)NC(=O)c1ccc(C(C)(C)C)cc1 [Example 191, (3aR,6aS)-4-tert-Butyl-N-{(1S)-3-methyl-1-[4-(4-methyl-pentanoyl)-6-oxo-hexahydro-pyrrolo[3,2-b]pyrrole-1-carbonyl]-butyl}-benzamide] | < 5 µM | < 5 µM |
| CC(C)C[C@H](NC(=O)c1ccc(C(C)(C)C)cc1)C(=O)N1CC[C@@H]2[C@H]1C(=O)CN2C(=O)[C@@H](N)CC(C)C [Example 192, (3aR,6aS)-N-{(1S)-1-[4-((2S)-2-Amino-4-methyl-pentanoyl)-6-oxo-hexahydro-pyrrolo[3,2-b]pyrrole-1-carbonyl]-3-methyl-butyl}-4-tert-butyl-benzamide] | < 5 µM | < 5 µM |
